Experimental data reported in US20260364184A1, “COMPOUND BASED ON OXOISOINDOLINYL-SUBSTITUTED TETRAHYDROPYRIMIDINE-DIONE AND USE THEREOF” (GLUETACS THERAPEUTICS (SHANGHAI) CO., LTD., priority 2023, published 2026).
Read-outs that look alike come from different tables or passages of the source.

Experiments:
[1] = test system: Human diffuse large B-cell lymphoma cell line (TMD8); assay: Inhibition of TMD8 cell proliferation (CellTiter luminescent viability); assay type: cell-based; settings: Homo sapiens, TMD8, 96 h; for inhibition at 0.01 µM: TMD8, 10 nM, read-out: Inhibition Rate at 10 nM (%); for inhibition at 0.5 µM: TMD8, 500 nM, read-out: Inhibition Rate at 500 nM (%)
Description: (§1) The tumor cells used herein were cultured in a cell culture medium listed in table 3 at 37 °C in an incubator with 5% CO2. Prior to experimentation, all cell lines used were correctly identified by STR profiling, and tested negative for mycoplasma contamination using a mycoplasma detection kit through routine screenings.
(§2) The IC50 values of the compounds of the present disclosure (including the compounds in Table 1, Table 2, and Examples 1-468) were determined using the CellTiter-Meiluncell Luminescent Cell Viability Assay Kit from Dalian Meilun Biotech Co., Ltd. The detailed procedure is as follows: Tumor cells were seeded in 96-well cell culture plates at the densities specified in Table 4. On the following day, the test compounds of the present disclosure were subjected to serial dilution. The dilution can be performed according to one of the following two methods: • (1) The first dilution method: The test compounds of the present disclosure (including the compounds in Table 1, Table 2, and Examples 1-468) were subjected to 5-fold serial dilutions starting from a highest concentration of 2000 μM, resulting in a total of 9 concentrations from high to low (2000, 400, 80, 16, 3.2, 0.64, 0.128, 0.0256, 0.00512 μM). Subsequently, 0.5 μL of the test compound dilution was transferred into the 96-well plate containing the cells, with each well containing 100 μL of cell culture medium. […] Into the 96-well plate, the diluted test compounds and corresponding detection reagents were added, resulting in final test compound concentrations of 500 nM and 10 nM, respectively. The experimental procedure is described below using the diluted 2 μM test compound as an example.
(§3) 0.5 μL of the aforementioned diluted compound of the present disclosure (including the compounds in Table 1, Table 2, and Examples 1-468) was added to the seeded cells in 100 μL of medium, yielding a final test compound concentration of 10 nM. After the cells were treated with the compounds of the present disclosure for a specified period, the cell viability assay reagent was added to the culture medium according to the kit's instructions to determine cell viability. […] All controls were treated using the same procedure as the compounds of the present disclosure. The growth inhibition curves for the compounds of the present disclosure were plotted using Prism GraphPad software, and the IC50 values were calculated therefrom.

[2] = test system: Human acute lymphocytic leukemia T lymphocytes cell line (CCRF-CEM); assay: Inhibition of CCRF-CEM cell proliferation (CellTiter luminescent viability); assay type: cell-based; settings: Homo sapiens, 96 h, Table IF2, AR inhibitor-based; for inhibition at 0.01 µM: 10 nM, read-out: Inhibition Rate at 10 nM (%); for inhibition at 0.5 µM: 500 nM, read-out: Inhibition Rate at 500 nM (%)
Description: as §1, §2, §3

[3] = test system: Human myeloid monocytic leukemia cell line (MV-4-11); assay: Inhibition of MV-4-11 cell proliferation (CellTiter luminescent viability); assay type: cell-based; settings: Homo sapiens, MV4-11, Table IJ2, Tau inhibitor-based, 96 hours; for inhibition at 0.01 µM: MV-4-11, 10 nM, read-out: Inhibition Rate at 10 nM (%); for inhibition at 0.5 µM: MV-4-11, 500 nM, read-out: Inhibition Rate at 500 nM (%)
Procedure, shortened: (§4)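 IC50 is fitted from luminescent viability (CellTiter-Meiluncell) curves. Nine-point, 5-fold dilution series (top stock 2000 μM) are added at 0.5 μL per 100 μL medium to cells plated the day before, with growth at 37 °C and 5% CO2.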

[4] = test system: Human Multiple myeloma cell line (MM.1S); assay: Inhibition of MM.1S cell proliferation (CellTiter luminescent viability); assay type: cell-based; settings: Homo sapiens, MM1.S, Table IJ1, Tau inhibitor-based, 96 hours; for inhibition at 0.01 µM: 10 nM, read-out: Inhibition Rate at 10 nM (%); for inhibition at 0.5 µM: 500 nM, read-out: Inhibition Rate at 500 nM (%)
Procedure, shortened: as §4

[5] = target: T1, human Cereblon WT GST-tagged protein (CRBN) (Homo sapiens, UniProt Q96SW2); assay: CRBN binding by HTRF (Cereblon binding kit)
T1 construct: purchased CISBIO 64BDCRBNPEH
Description: The CEREBLON BINDING kits (specification: 10,000 tests; product number: Catalog #64BDCRBNPEH; CISBIO company) was used to determine the CRBN binding ability of the compounds to be tested through a HTRF method (homogeneous time-resolved fluorescence). The specific methods are as follows: • 1. According to the instructions of the CEREBLON BINDING KITS, serial dilutions were performed for the test compounds of the present disclosure (including the compounds in Table 1, Table 2, and Examples 1-468) and for lenalidomide. Specifically, diluent #9 (1×) solution was used as the diluent, and multiple concentration gradients were set. The dilution operation can be performed according to one of the following two methods: • (1) The first dilution method: The test compounds of the present disclosure (including the compounds in Table 1, Table 2, and Examples 1-468) were subjected to 5-fold serial dilutions starting from a highest concentration of 40 μM, resulting in a total of 7 concentrations from high to low (40, 8, 1.6, 0.32, 0.064, 0.0128, 0.00256 μM). Subsequently, the diluted test compounds and corresponding detection reagents were added to each well of a 96-well plate, resulting in final test compound concentrations of 10, 2, 0.4, 0.08, 0.016, 0.0032, and 0.00064 μM, respectively. • (2) As an alternative, a second dilution method can be used: The test compounds of the present disclosure (including the compounds in Table 1, Table 2, and Examples 1-468) were subjected to 4-fold gradient dilutions starting from a highest concentration of 8 μM, resulting in 2 concentrations (8 μM, 2 μM). Into the 96-well plate, the diluted test compounds and corresponding detection reagents were added, resulting in final test compound concentrations of 2 μM and 0.5 μM, respectively. The experimental procedure is described below using the diluted 8 μM test compound and lenalidomide solutions as examples. • 2. 2.5 μL of the above 8 μM of the tested compounds and lenalidomide solution, as well as the same volume of diluent #9 (1×) solution (solvent control group, Std0) were added to each well of a 96-well plate, respectively. Then, 2.5 μL of human Cereblon WT GST-tagged protein solution was added to each well. Finally, 5 μL of the thoroughly mixed Thalidomide-Re reagent and GST Eu antibody working solution were added to each of the aforementioned wells. The final concentration of the tested compounds and lenalidomide in each well was 2 μM. • 3. The blank control wells were sequentially added with 2.5 μL of diluent #9 (1×) solution, 2.5 μL of PROTAC binding buffer, and 5 μL of thoroughly mixed Thalidomide-Re reagent and GST Eu antibody working solution. • 4. After sealing and incubating the solutions in the aforementioned wells at room temperature for 3 hours, the absorbance values at emission wavelengths of 620 nm and 665 nm were detected by the HTRF method using a Spark microplate reader (V3.1 SP1).
The corresponding CRBN binding inhibition rate was calculated using the following method:
Rcompound=OD 665 nmcompound/OD 620 nmcompound−OD 665 nmcontrol/OD 620 nmcontrol
RStd0=OD 665 nmStd0/OD 620 nmStd0−OD 665 nmcontrol/OD 620 nmcontrol inhibition rate (%)=(1−Rcompound/RStd0)*100
Note: OD 665 nmcompound is the absorbance value of each well of the compounds to be tested of the present disclosure at an emission wavelength of 665 nm. OD 620 nmcompound is the absorbance value of each well of the compounds to be tested of the present disclosure at an emission wavelength of 620 nm. OD 665 nmcontrol is the absorbance value of the blank control well at an emission wavelength of 665 nm. OD 620 nmcontrol is the absorbance value of the blank control well at an emission wavelength of 620 nm. OD 665 nmStd0 is the absorbance value of the solvent control well at an emission wavelength of 665 nm. OD 620 nmStd0 is the absorbance value of the solvent control well at an emission wavelength of 620 nm.

T1 sequence (Q96SW2 whole entry): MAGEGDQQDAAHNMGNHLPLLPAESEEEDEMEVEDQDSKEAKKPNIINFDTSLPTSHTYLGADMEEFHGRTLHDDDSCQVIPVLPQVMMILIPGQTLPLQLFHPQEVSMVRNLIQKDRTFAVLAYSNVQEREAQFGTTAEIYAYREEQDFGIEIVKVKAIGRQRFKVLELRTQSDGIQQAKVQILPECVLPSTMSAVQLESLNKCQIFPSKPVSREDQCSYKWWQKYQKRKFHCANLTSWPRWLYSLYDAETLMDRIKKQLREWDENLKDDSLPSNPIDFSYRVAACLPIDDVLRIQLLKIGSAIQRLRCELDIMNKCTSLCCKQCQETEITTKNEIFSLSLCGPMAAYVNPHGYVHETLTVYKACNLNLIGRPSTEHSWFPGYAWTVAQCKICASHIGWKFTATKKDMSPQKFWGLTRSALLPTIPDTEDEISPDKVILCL

SMILES | inhibition at 0.01 µM ([1]; Table IF1, AR inhibitor-based) [%] | inhibition at 0.5 µM ([1]; Table IF1, AR inhibitor-based) [%] | inhibition at 0.01 µM [2] [%] | inhibition at 0.5 µM [2] [%] | inhibition at 0.01 µM [3] [%] | inhibition at 0.5 µM [3] [%] | inhibition at 0.01 µM [4] [%] | inhibition at 0.5 µM [4] [%] | inhibition at 0.01 µM ([1]; Table IJ3, Tau inhibitor-based) [%] | inhibition at 0.5 µM ([1]; Table IJ3, Tau inhibitor-based) [%] | inhibition at 0.5 µM ([5]; 0.5 μM, read-out: Inhibition Rate at 0.5 μM (%)) [%] | inhibition at 2 µM ([5]; 2 μM, read-out: Inhibition Rate at 2 μM (%)) [%]
CC1(C)[C@H](NC(=O)c2ccc(N3CCC(CN4CCN(c5cc6c(cc5F)C(=O)N(N5CCC(=O)NC5=O)C6=O)CC4)CC3)nc2)C(C)(C)[C@H]1Oc1ccc(C#N)c(Cl)c1 [GT-05304, N-((1r,3r)-3-(3-chloro-4-cyanophenoxy)-2,2,4,4-tetramethylcyclobutyl)-6-(4-((4-(2-(2,4-dioxotetrahydropyrimidin-1(2H)-yl)-6-fluoro-1,3-dioxoisoindolin-5-yl)piperazin-1-yl)methyl)piperidin-1-yl)nicotinamide] | 30 to 35 | 40 to 60 | 20 to 30 | 30 to 40 |  |  |  |  |  |  |  | 
CC1(C)[C@H](NC(=O)c2ccc(N3CCC(CN4CC5CC(C4)N5c4ccc5c(c4)C(=O)N(N4CCC(=O)NC4=O)C5=O)CC3)nc2)C(C)(C)[C@H]1Oc1ccc(C#N)c(Cl)c1 [GT-05306, N-((1r,3r)-3-(3-chloro-4-cyanophenoxy)-2,2,4,4-tetramethylcyclobutyl)-6-(4-((6-(2-(2,4-dioxotetrahydropyrimidin-1(2H)-yl)-1,3-dioxoisoindolin-5-yl)-3,6-diazabicyclo[3.1.1]heptan-3-yl)methyl)piperidin-1-yl)nicotinamide] | 10 to 15 | 20 to 25 | 15 to 20 | 20 to 30 |  |  |  |  |  |  |  | 
Cn1c2ccncc2c2ccc(-c3cnc(N4CCN(Cc5ccc6c(c5)CN(N5CCC(=O)NC5=O)C6=O)CC4)c(C(F)(F)F)c3)cc21 [GT-08539, 1-(5-((4-(5-(5-methyl-5H-pyrido[4,3-b]indol-7-yl)-3-(trifluoromethyl)pyridin-2-yl)piperazin-1-yl)methyl)-1-oxoisoindolin-2-yl)dihydropyrimidine-2,4 (1H,3H)-dione] |  |  |  |  | 30 to 40 | 50 to 60 | 20 to 30 | 60 to 70 | 20 to 30 | 60 to 70 | 20 to 30 | 60 to 80
Cc1cc(-c2ccc3c4cnccc4n(C)c3c2)cnc1N1CCN(CC2CCN(c3cccc4c3C(=O)N(N3CCC(=O)NC3=O)C4=O)CC2)CC1 [GT-08563, 2-(2,4-dioxotetrahydropyrimidin-1(2H)-yl)-4-(4-((4-(3-methyl-5-(5-methyl-5H-pyrido[4,3-b]indol-7-yl)pyridin-2-yl)piperazin-1-yl)methyl)piperidin-1-yl)isoindoline-1,3-dione] |  |  |  |  | 15 to 20 | 80 to 100 | 15 to 20 | 60 to 70 | 15 to 20 | 80 to 100 |  | 
O=C1CCN(N2C(=O)c3cccc(N4CCC(CN5CCN(c6ccc(-c7ccc8c(c7)[nH]c7ccncc78)cn6)CC5)CC4)c3C2=O)C(=O)N1 [GT-08557, 4-(4-((4-(5-(5H-pyrido[4,3-b]indol-7-yl)pyridin-2-yl)piperazin-1-yl)methyl)piperidin-1-yl)-2-(2,4-dioxotetrahydropyrimidin-1(2H)-yl)isoindoline-1,3-dione] |  |  |  |  |  |  | 30 to 40 | 50 to 60 | 0 to 5 | 60 to 70 |  | 
Cn1c2ccncc2c2ccc(-c3ccc(N4CCN(CC5CCN(c6cccc7c6C(=O)N(N6CCC(=O)NC6=O)C7=O)CC5)CC4)nc3)cc21 [GT-08558, 2-(2,4-dioxotetrahydropyrimidin-1(2H)-yl)-4-(4-((4-(5-(5-methyl-5H-pyrido[4,3-b]indol-7-yl)pyridin-2-yl)piperazin-1-yl)methyl)piperidin-1-yl)isoindoline-1,3-dione] |  |  |  |  | -5 to 0 | 50 to 60 |  |  | 5 to 10 | 80 to 100 |  | 
Cn1c2ccncc2c2ccc(-c3cnc(N4CCN(CC5CCN(c6cccc7c6C(=O)N(N6CCC(=O)NC6=O)C7=O)CC5)CC4)c(Cl)c3)cc21 [GT-08564, 4-(4-((4-(3-chloro-5-(5-methyl-5H-pyrido[4,3-b]indol-7-yl)pyridin-2-yl)piperazin-1-yl)methyl)piperidin-1-yl)-2-(2,4-dioxotetrahydropyrimidin-1(2H)-yl)isoindoline-1,3-dione] |  |  |  |  | 0 to 5 | 70 to 80 |  |  | 10 to 15 | 80 to 100 |  | 
